# Test results from ChEMBL document CHEMBL1201862, “PubChem BioAssay data set” (2004).
#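 1) Cells in 96-well plates. 2) Compound, 48 h, 5 concentrations. 3) Linear interpolation between surrounding doses. 4) Unreached endpoint = highest concentration. GI50 = concentration required for 50% inhibition of growth.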 Active and inactive are the calls of the source. Rule as the data show it: active = GI50 up to about 1.1 µM and inactive = higher.
# Legend:
# Assay in all cases: NCI anticancer screen, dose series, 48 h
# HOP-62 = tested on: HOP-62
# SF-268 = tested on: SF-268
# KM12 = tested on: KM12
# SR = tested on: SR
# NCI-H460 = tested on: NCI-H460
# OVCAR-4 = tested on: OVCAR-4
# Malme-3M = tested on: Malme-3M
# UACC-62 = tested on: UACC-62
# M14 = tested on: M14
# SN12C = tested on: SN12C
# A549 = tested on: A549
# U-251 = tested on: U-251
# SK-MEL-5 = tested on: SK-MEL-5
# LOX IMVI = tested on: LOX IMVI
# SK-OV-3 = tested on: SK-OV-3
# COLO 205 = tested on: COLO 205
# CAKI-1 = tested on: CAKI-1
SMILES,GI50 (HOP-62),GI50 (SF-268),GI50 (KM12),GI50 (SR),GI50 (NCI-H460),GI50 (OVCAR-4),GI50 (Malme-3M),GI50 (UACC-62),GI50 (M14),GI50 (SN12C),GI50 (A549),GI50 (U-251),GI50 (SK-MEL-5),GI50 (LOX IMVI),GI50 (SK-OV-3),GI50 (COLO 205),GI50 (CAKI-1)
CCn1cc(C(=O)O)c(=O)c2cc(F)c(N3CCNCC3)nc21 [ENOXACIN],> 100 µM (inactive),> 100 µM (inactive),79.3 µM (inactive),77.8 µM (inactive),> 100 µM (inactive),> 100 µM (inactive),74.1 µM (inactive),> 100 µM (inactive),> 100 µM (inactive),68.7 µM (inactive),> 100 µM (inactive),66.7 µM (inactive),87.5 µM (inactive),86.3 µM (inactive),> 100 µM (inactive),> 100 µM (inactive),
CC(C)C(Sc1nc(-c2ccccc2)c(-c2ccccc2)[nH]1)C(=O)NNC(=S)Nc1ccccc1 (stereo unspecified),24.1 µM (inactive),24.5 µM (inactive),14.7 µM (inactive),5.61 µM (inactive),17.1 µM (inactive),22.5 µM (inactive),16.7 µM (inactive),0.857 µM (active),16.9 µM (inactive),17.5 µM (inactive),25.5 µM (inactive),15 µM (inactive),12.8 µM (inactive),15.9 µM (inactive),21.5 µM (inactive),18.5 µM (inactive),
COC(=O)C1=CNC(C(=O)OC)=NN1,> 100 µM (inactive),> 100 µM (inactive),> 100 µM (inactive),> 100 µM (inactive),> 100 µM (inactive),> 100 µM (inactive),> 100 µM (inactive),> 100 µM (inactive),> 100 µM (inactive),> 100 µM (inactive),> 100 µM (inactive),> 100 µM (inactive),> 100 µM (inactive),,> 100 µM (inactive),> 100 µM (inactive),> 100 µM (inactive)
O=C1c2ccccc2S[C@@H](O)[C@@H]2CCCN12,> 100 µM (inactive),> 100 µM (inactive),> 100 µM (inactive),> 100 µM (inactive),> 100 µM (inactive),,> 100 µM (inactive),47.9 µM (inactive),> 100 µM (inactive),> 100 µM (inactive),> 100 µM (inactive),> 100 µM (inactive),> 100 µM (inactive),> 100 µM (inactive),35.2 µM (inactive),> 100 µM (inactive),
Cc1ccc(C2=[N+]([O-])c3ccccc3C2=O)cc1,> 100 µM (inactive),35.1 µM (inactive),17 µM (inactive),36.1 µM (inactive),36.3 µM (inactive),,22.9 µM (inactive),17.5 µM (inactive),21.7 µM (inactive),19.7 µM (inactive),46.7 µM (inactive),19 µM (inactive),13.6 µM (inactive),16.8 µM (inactive),> 100 µM (inactive),28.9 µM (inactive),> 100 µM (inactive)
Nc1ccccc1SC(/C=C/NNC1=NN=C(c2ccccc2)C(c2ccccc2)N1)c1ccccc1 (stereo unspecified),19.5 µM (inactive),5.64 µM (inactive),12.7 µM (inactive),,18.5 µM (inactive),14.9 µM (inactive),15.9 µM (inactive),10.6 µM (inactive),12.4 µM (inactive),17 µM (inactive),15.2 µM (inactive),15 µM (inactive),13.4 µM (inactive),12.7 µM (inactive),29.6 µM (inactive),15.6 µM (inactive),10.6 µM (inactive)
Cc1cc(C)cc(-n2c3nc(=O)n(C)c(=O)c-3nc3ccccc32)c1,45.4 µM (inactive),65.6 µM (inactive),27.1 µM (inactive),,23.9 µM (inactive),18.5 µM (inactive),16 µM (inactive),16.7 µM (inactive),27 µM (inactive),26.8 µM (inactive),26.7 µM (inactive),21.8 µM (inactive),15.8 µM (inactive),29.3 µM (inactive),> 100 µM (inactive),7.29 µM (inactive),37.8 µM (inactive)
CCc1ccc(Cc2ccc(CC)c(NC(=O)C(=O)C3NC(=S)NC3=O)c2CC)c(CC)c1NC(=O)C(=O)C1NC(=S)NC1=O (stereo unspecified),> 100 µM (inactive),> 100 µM (inactive),> 100 µM (inactive),,> 100 µM (inactive),> 100 µM (inactive),> 100 µM (inactive),> 100 µM (inactive),> 100 µM (inactive),,> 100 µM (inactive),> 100 µM (inactive),> 100 µM (inactive),> 100 µM (inactive),> 100 µM (inactive),> 100 µM (inactive),> 100 µM (inactive)
C/C(=N\NC(=S)N(C)C)c1ncc[nH]1,,3.56 µM (inactive),5.21 µM (inactive),2.81 µM (inactive),3.24 µM (inactive),,3.36 µM (inactive),2.51 µM (inactive),2.31 µM (inactive),3.95 µM (inactive),3.38 µM (inactive),2.23 µM (inactive),4.46 µM (inactive),3.08 µM (inactive),3.87 µM (inactive),,
O=C1N(c2ccccc2)C2(O)C(=O)c3ccccc3C2(O)N1c1ccccc1 (stereo unspecified),> 100 µM (inactive),> 100 µM (inactive),> 100 µM (inactive),> 100 µM (inactive),> 100 µM (inactive),> 100 µM (inactive),> 100 µM (inactive),> 100 µM (inactive),> 100 µM (inactive),> 100 µM (inactive),> 100 µM (inactive),> 100 µM (inactive),> 100 µM (inactive),> 100 µM (inactive),> 100 µM (inactive),> 100 µM (inactive),> 100 µM (inactive)
CCCc1c[nH]c(-c2ccc(-c3cc(CCC)c(C=O)[nH]3)s2)c1,,18.3 µM (inactive),14.7 µM (inactive),,4.55 µM (inactive),18.9 µM (inactive),15.2 µM (inactive),16.9 µM (inactive),12.1 µM (inactive),15.6 µM (inactive),5.83 µM (inactive),15.6 µM (inactive),16.9 µM (inactive),14 µM (inactive),18.5 µM (inactive),,
CC(=O)CC(=O)Nc1ccccc1C(F)(F)F,> 100 µM (inactive),> 100 µM (inactive),,,> 100 µM (inactive),> 100 µM (inactive),> 100 µM (inactive),> 100 µM (inactive),> 100 µM (inactive),> 100 µM (inactive),> 100 µM (inactive),> 100 µM (inactive),> 100 µM (inactive),> 100 µM (inactive),> 100 µM (inactive),> 100 µM (inactive),> 100 µM (inactive)
O=[N+]([O-])c1cc(C2SCc3nc4ccccc4n32)ccc1Cl (stereo unspecified),,20.7 µM (inactive),16.7 µM (inactive),30.2 µM (inactive),31.8 µM (inactive),,34.8 µM (inactive),18.6 µM (inactive),,12 µM (inactive),33.1 µM (inactive),27.2 µM (inactive),15 µM (inactive),,28.1 µM (inactive),22.1 µM (inactive),33.3 µM (inactive)
CCC1CC2C(=O)N(c3ccccc3)C(=O)C2c2[nH]c3ccccc3c21 (stereo unspecified),,24.5 µM (inactive),31.2 µM (inactive),23.1 µM (inactive),15.8 µM (inactive),4.61 µM (inactive),14.1 µM (inactive),19.5 µM (inactive),17.1 µM (inactive),19.6 µM (inactive),24.6 µM (inactive),28.5 µM (inactive),30.8 µM (inactive),17.1 µM (inactive),13.6 µM (inactive),22 µM (inactive),
COc1ccc(N2C(=O)c3c(c4[nH]c5ccc(OC)cc5c4c4ccc(C(C)(C)C)cc34)C2=O)cc1,> 100 µM (inactive),> 100 µM (inactive),> 100 µM (inactive),,> 100 µM (inactive),> 100 µM (inactive),> 100 µM (inactive),,> 100 µM (inactive),> 100 µM (inactive),> 100 µM (inactive),> 100 µM (inactive),> 100 µM (inactive),,> 100 µM (inactive),> 100 µM (inactive),
CC1(C)CCC[C@@]2(C)C1C[C@H](O)[C@@]1(C)O[C@@](C)([C@H](O)CO)CCC21 (stereo partly specified),62.7 µM (inactive),30.4 µM (inactive),37.2 µM (inactive),,40.9 µM (inactive),35.7 µM (inactive),40.6 µM (inactive),28.6 µM (inactive),34.6 µM (inactive),37.2 µM (inactive),36.2 µM (inactive),37.2 µM (inactive),20.9 µM (inactive),,25.1 µM (inactive),25.3 µM (inactive),35.8 µM (inactive)
CCN(CC)C(=O)c1c(N2CCOCC2)cc(N(CC)CC)oc1=O,> 100 µM (inactive),> 100 µM (inactive),> 100 µM (inactive),> 100 µM (inactive),> 100 µM (inactive),> 100 µM (inactive),> 100 µM (inactive),> 100 µM (inactive),> 100 µM (inactive),> 100 µM (inactive),> 100 µM (inactive),> 100 µM (inactive),,> 100 µM (inactive),> 100 µM (inactive),> 100 µM (inactive),
COC(=O)NN=C1C(C)(C)C(=NNC(=O)OC)C1(C)C,> 100 µM (inactive),> 84.1 µM (inactive),> 100 µM (inactive),,> 100 µM (inactive),> 100 µM (inactive),> 100 µM (inactive),> 100 µM (inactive),> 100 µM (inactive),> 68.2 µM (inactive),> 100 µM (inactive),> 62.7 µM (inactive),> 100 µM (inactive),> 35.8 µM (inactive),> 100 µM (inactive),> 41.6 µM (inactive),> 85.1 µM (inactive)
